For this experiment, the system named is EBTr [NBL-4] cells derived from bovine embryonic trachea. The experiment in a line: cAMP production promoting action in EBTr [NBL-4] cell derived from bovine embryonic trachea. As to conditions: for EC50: concentration producing 50% of the cAMP amount obtained with 10 μM PGD2 (=100%), 15 minutes with test compound and 0.5 mM 3-isobutyl-1-methylxanthine; for cAMP production promoting action (in words): conclusion drawn from Table 1. The format is cell-based. As to the method: Experiment [Measurement of cAMP production promoting action in EBTr [NBL-4] cell derived from bovine embryonic trachea]
According to the method of Ito et al. in Br. J. Pharmacol., vol. 99, page 13-14 (1990), the following test was carried out.
That is, EBTr [NBL-4] cells derived from bovine embryonic trachea (produced by Dainippon Pharmaceutical Co.) were inoculated on 24-well plates (6×10^4 cells/well) (manufactured by Sumitomo Bakelite Co.), and cultured on a growth medium (MEM Earle's medium including 10% calf serum, 2mM glutamine and non-essential amino acids) for 48 hours, followed by cultivation on 0.5 ml of a growth medium including the test compound and 0.5 mM 3-isobutyl-1-methylxanthine) for 15 minutes. After the completion of the reaction, the cells were washed with a phosphate buffer (not including Ca++ and Mg++), 0.6 ml of 65% aqueous ethanol solution was added, followed by allowing to stand at 4° C. for an hour, and the resulting cAMP was extracted. After evaporation of the solvent by a centrifugal evaporator, the amount of cAMP was measured by using a cAMP EIA System (manufactured by Amersham Co.).
When an amount of cAMP obtained by adding PGD2 in a concentration of 10 μM was regarded as 100%, a concentration required to produce 50% of the amount of cAMP was measured as EC50.
(note) Compounds 19 and 97 are those prepared in the examples as described above. The test compounds were each used as a form of an ethanol solution, and compared with a vehicle-treated group as a control.

Regarding `O=C(O)COCCSCC1C(Cl)CC(O)C1C#CC(O)C1CCCCC1` (stereo not drawn) [Compound 97, 3-Oxa-6-thia-9β-chloro-13,14-didehydro-16,17,18,19,20-pentanor-15-cyclohexyl-9-deoxy-PGF1α], the half-maximal effective concentration (EC50) turned out to be 5.13 nM and the “cAMP production promoting action (in words)” value is “strong cAMP production promoting action”.
Taken in the same sequence, the figures for `O=C(O)CCCCSCC1C(Cl)CC(O)C1C#CC(O)C1CCCCC1` (stereo not drawn) [Compound 19, 6-Thia-9-deoxy-9β-chloro-16,17,18,19,20-pentanor-15-cyclohexyl-13,14-didehydro-PGF1α] were 17.3 nM and “strong cAMP production promoting action”.
`CCCCC[C@H](O)/C=C/[C@H]1C(=O)C[C@H](O)[C@@H]1C/C=C\CCCC(=O)O` [PGD2, reference compound] came in with an EC50 of 124 nM. In other words, the sub-micromolar range.
